Reference: patent publication EP4806894A1, “TNAP INHIBITORY COMPOUND AND USE THEREOF” (Rednvia Co., Ltd., priority 2023, dated 2025)

Assays:
saos-2 cells = assay: Anticalcification efficacy in saos-2 cells (osteogenic medium, Alizarin Red staining); assay type: cell-based; details: test compound 1 µM, 7 days osteogenic medium, Alizarin Red absorbance 540 nm; for inhibition at 1 µM: Homo sapiens, 168 h, read-out: calcification inhibition
Description: To confirm the inhibitory effect of calcification in saos-2 cells in which calcification is induced by overexpression of TNAP, saos-2 cells were cultured in a culture medium in an incubator at 37°C, 95% humidity, and 5% CO2. RPMI-1640 (Corning) supplemented with 10% FBS (Gibco) and 1% Pen/Strep (Gibco) was used as the culture medium.
Saos-2 cells were seeded in a 48-well plate at the density of 1.5 x 10^4 cells/well and used in the experiment when they reached 80-90% confluence after stabilization for 2 days.
After saos-2 cells were cultured in a 48-well plate to 80-90% confluence, the culture medium was removed and replaced with an osteogenic medium (OM). DMEM (Gibco) containing 10% FBS, 1% Pen/Strep, 100 nM dexamethasone (Sigma), 10 mM β-glycerophosphate (Sigma), and 0.05 mM L-ascorbic acid (Sigma) was used as the OM. Osteogenic differentiation of saos-2 cells by OM was induced for 7 days, and OM was replaced every 2 to 3 days.
When inducing calcification through OM in saos-2 cells, the cells were treated with concentrations of […] of the TNAP inhibitor test compounds with the OM replacement cycle, except for the control group (OM).
After 7 days of OM induction, the medium was removed from each well and the plate was washed twice with PBS. Cells were fixed with 4% paraformaldehyde for 1 hour, then the fixative was removed and washed twice with deionized water (DW). ARS solution was added to the plate and shaken for 1 hour to stain the cells. When the cells were sufficiently stained red, the dye was removed, the cells were washed carefully with DW, dried, and then photographs were taken of the stained cells. The red-stained area represents calcification induced by OM, and the degree of calcification was determined based on the degree of redness. To quantify this, 10% cetylpyridinium chloride was dispensed into the wells and the dye was dissolved. The dye-dissolved solution was transferred to each well of a 96 well plate and absorbance was measured at 540 nm.
The degree of decrease in the measured absorbance by the test compounds based on the absorbance for OM was evaluated as the degree of inhibition of calcification.

TNAP = biological target: T1, TNAP (Homo sapiens, UniProt P05186); assay: TNAP inhibitory activity, colorimetric assay (alkaline phosphatase assay kit ab83369, pNPP substrate); assay type: biochemical; details: TNAP enzyme, 2 hours at room temperature, absorbance 405 nm
T1 sequence (P05186 18-502 limits assumed): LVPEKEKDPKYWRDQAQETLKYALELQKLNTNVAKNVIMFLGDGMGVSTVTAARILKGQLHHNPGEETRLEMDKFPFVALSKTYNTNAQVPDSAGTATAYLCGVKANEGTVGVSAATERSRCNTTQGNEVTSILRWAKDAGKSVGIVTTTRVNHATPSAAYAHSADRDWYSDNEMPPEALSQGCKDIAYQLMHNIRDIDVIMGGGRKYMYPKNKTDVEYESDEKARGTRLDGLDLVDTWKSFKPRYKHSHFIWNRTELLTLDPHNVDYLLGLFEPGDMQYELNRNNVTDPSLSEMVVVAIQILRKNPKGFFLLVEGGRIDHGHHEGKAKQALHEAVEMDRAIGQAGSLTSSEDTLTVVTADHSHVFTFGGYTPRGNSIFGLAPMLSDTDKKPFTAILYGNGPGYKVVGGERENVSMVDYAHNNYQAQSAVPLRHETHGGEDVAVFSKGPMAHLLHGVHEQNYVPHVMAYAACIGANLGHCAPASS
Description: The TNAP inhibitory activity of the compounds according to the present invention was analyzed by colorimetric assay.
The experiments were performed according to the protocol of the alkaline phosphatase assay kit ab83369.
TNAP enzyme at a concentration of 0.2 ng/µl was dispensed into a 96-well plate (Costar) (10 µl/well), to which the 10-fold diluted test substance was added (15 µl/well). The plate was incubated at room temperature, shielded from light, for 10 minutes to allow the enzyme and compound to act. After incubation, 125 µl of 1 mM substrate (pNPP) was added to each well of the plate, and the plate was incubated for 2 hours at room temperature in a darkened state to allow the enzyme, substrate, and test compound to act. Absorbance was measured at 405 nm using a microplate reader (Tecan spark), and IC50 was calculated using GraphPad Prism 9. The amount of p-nitrophenol produced was calculated through the absorbance, and the degree of TNAP activity inhibition was evaluated through the degree of inhibition of p-nitrophenol production, and the concentration of the compound that inhibited 50% was calculated as the IC50 value.

Molecule	IC50 (TNAP) [nM]	calcification inhibition (saos-2 cells)	inhibition at 1 µM (saos-2 cells) [%]
2-methoxy-N-(5-oxo-5,6,7,8-tetrahydro-1,6-naphthyridine-3-yl)benzenesulfonamide [Example 26]	10 to 100	A (inhibition of 50% or more was expressed as "A")	–
4'-(aminomethyl)-4-fluoro-N-(5-oxo-5,6,7,8-tetrahydro-1,6-naphthyridine-3-yl)-[1,1'-biphenyl]-2-sulfonamide hydrochloride [Example 39]	10 to 100	A (inhibition of 50% or more was expressed as "A")	–
O=C1NCCc2ncc(NS(=O)(=O)c3cc(Br)cc4c3OCC4)cc21 [Example 10, 5-bromo-N-(5-oxo-5,6,7,8-tetrahydro-1,6-naphthyridine-3-yl)-2,3-dihydrobenzofuran-7-sulfonamide]	100 to 1000	–	≥ 50
O=C1NCc2ncc(NS(=O)(=O)c3cc(F)ccc3Br)cc21 [Example 11, 2-bromo-5-fluoro-N-(5-oxo-6,7-dihydro-5H-pyrrolo[3,4-b]pyridine-3-yl)benzenesulfonamide]	≥ 1000	–	≥ 50
O=C1NCc2ncc(NS(=O)(=O)c3c(F)cc(F)cc3Br)cc21 [Example 12, 2-bromo-4,6-difluoro-N-(5-oxo-6,7-dihydro-5H-pyrrolo[3,4-b]pyridine-3-yl)benzenesulfonamide]	≥ 1000	–	< 0
COc1ccc(Br)cc1S(=O)(=O)Nc1cnc2c(c1)C(=O)NCCC2 [Example 14, 5-bromo-2-methoxy-N-(5-oxo-6,7,8,9-tetrahydro-5H-pyrido[3,2-c]azepine-3-yl)benzenesulfonamide]	100 to 1000	–	≥ 50
O=C1NCCCc2ncc(NS(=O)(=O)c3cc(Br)cc4c3OCC4)cc21 [Example 17, 5-bromo-N-(5-oxo-6,7,8,9-tetrahydro-5H-pyrido[3,2-c]azepine-3-yl)-2,3-dihydrobenzofuran-7-sulfonamide]	≥ 1000	–	< 0
O=C1NCc2ncc(NS(=O)(=O)c3cccc4c3OCC4)cc21 [Example 18, N-(5-oxo-6,7-dihydro-5H-pyrrolo[3,4-b]pyridine-3-yl)-2,3-dihydrobenzofuran-7-sulfonamide]	≥ 1000	–	< 0
O=C1NCCc2ncc(NS(=O)(=O)c3cccc4c3OCC4)cc21 [Example 19, N-(5-oxo-5,6,7,8-tetrahydro-1,6-naphthyridine-3-yl)-2,3-dihydrobenzofuran-7-sulfonamide]	≥ 1000	–	< 0
O=C1NCc2ncc(NS(=O)(=O)c3cc(Cl)cc4c3OCC4)cc21 [Example 20, 5-chloro-N-(5-oxo-6,7-dihydro-5H-pyrrolo[3,4-b]pyridine-3-yl)-2,3-dihydrobenzofuran-7-sulfonamide]	≥ 1000	–	< 0
O=C1NCc2ncc(NS(=O)(=O)c3cc(F)cc4c3OCC4)cc21 [Example 21, 5-fluoro-N-(5-oxo-6,7-dihydro-5H-pyrrolo[3,4-b]pyridine-3-yl)-2,3-dihydrobenzofuran-7-sulfonamide]	≥ 1000	–	< 0
O=C1NCCc2ncc(NS(=O)(=O)c3cc(Cl)cc4c3OCC4)cc21 [Example 22, 5-chloro-N-(5-oxo-5,6,7,8-tetrahydro-1,6-naphthyridine-3-yl)-2,3-dihydrobenzofuran-7-sulfonamide]	100 to 1000	–	≥ 50
O=C1NCCc2ncc(NS(=O)(=O)c3cc(F)cc4c3OCC4)cc21 [Example 23, 5-fluoro-N-(5-oxo-5,6,7,8-tetrahydro-1,6-naphthyridine-3-yl)-2,3-dihydrobenzofuran-7-sulfonamide]	≥ 1000	–	< 0
O=C1NCCc2ncc(NS(=O)(=O)c3ccc4c(c3)OCCO4)cc21 [Example 24, N-(5-oxo-5,6,7,8-tetrahydro-1,6-naphthyridine-3-yl)-2,3-dihydrobenzo[b][1,4]dioxine-6-sulfonamide]	≥ 1000	–	< 0
O=C1COc2ccc(S(=O)(=O)Nc3cnc4c(c3)C(=O)NCC4)cc2N1 [Example 25, 3-oxo-N-(5-oxo-5,6,7,8-tetrahydro-1,6-naphthyridine-3-yl)-3,4-dihydro-2H-benzo[b][1,4]oxazine-6-sulfonamide]	≥ 1000	–	< 0
COc1ccc(Cl)cc1S(=O)(=O)Nc1cncc(C(N)=O)c1 [SBD-425, reference compound]	100 to 1000	–	–

More lines, main results first:

IC50 (TNAP) [nM]	Molecule	calcification inhibition (saos-2 cells)	inhibition at 1 µM (saos-2 cells) [%]
10 to 100	COc1ccc(Br)cc1S(=O)(=O)Nc1cnc2c(c1)C(=O)NC2 [Example 2, 5-bromo-2-methoxy-N-(5-oxo-6,7-dihydro-5H-pyrrolo[3,4-b]pyridine-3-yl)benzenesulfonamide]	–	≥ 50
10 to 100	COc1ccc(OC)c(S(=O)(=O)Nc2cnc3c(c2)C(=O)NC3)c1 [Example 3, 2,5-dimethoxy-N-(5-oxo-6,7-dihydro-5H-pyrrolo[3,4-b]pyridine-3-yl)benzenesulfonamide]	–	≥ 50
10 to 100	COc1ccc(F)cc1S(=O)(=O)Nc1cnc2c(c1)C(=O)NC2 [Example 4, 5-fluoro-2-methoxy-N-(5-oxo-6,7-dihydro-5H-pyrrolo[3,4-b]pyridine-3-yl)benzenesulfonamide]	–	≥ 50
100 to 1000	O=C1NCc2ncc(NS(=O)(=O)c3cc(Br)cc4c3OCC4)cc21 [Example 5, 5-bromo-N-(5-oxo-6,7-dihydro-5H-pyrrolo[3,4-b]pyridine-3-yl)-2,3-dihydrobenzofuran-7-sulfonamide]	–	0 to 50
≤ 10	COc1ccc(OC)c(S(=O)(=O)Nc2cnc3c(c2)C(=O)NCC3)c1 [Example 7, 2,5-dimethoxy-N-(5-oxo-5,6,7,8-tetrahydro-1,6-naphthyridine-3-yl)benzenesulfonamide]	–	≥ 50
10 to 100	COc1ccc(F)cc1S(=O)(=O)Nc1cnc2c(c1)C(=O)NCC2 [Example 8, 5-fluoro-2-methoxy-N-(5-oxo-5,6,7,8-tetrahydro-1,6-naphthyridine-3-yl)benzenesulfonamide]	–	≥ 50
≤ 10	COc1ccc(Br)cc1S(=O)(=O)Nc1cnc2c(c1)C(=O)NCC2 [Example 9, 5-bromo-2-methoxy-N-(5-oxo-5,6,7,8-tetrahydro-1,6-naphthyridine-3-yl)benzenesulfonamide]	–	≥ 50
100 to 1000	COc1ccc(Cl)cc1S(=O)(=O)Nc1cnc2c(c1)C(=O)NCCC2 [Example 13, 5-chloro-2-methoxy-N-(5-oxo-6,7,8,9-tetrahydro-5H-pyrido[3,2-c]azepine-3-yl)benzenesulfonamide]	–	≥ 50
100 to 1000	COc1ccc(F)cc1S(=O)(=O)Nc1cnc2c(c1)C(=O)NCCC2 [Example 15, 5-fluoro-2-methoxy-N-(5-oxo-6,7,8,9-tetrahydro-5H-pyrido[3,2-c]azepine-3-yl)benzenesulfonamide]	–	≥ 50
100 to 1000	COc1ccc(OC)c(S(=O)(=O)Nc2cnc3c(c2)C(=O)NCCC3)c1 [Example 16, 2,5-dimethoxy-N-(5-oxo-6,7,8,9-tetrahydro-5H-pyrido[3,2-c]azepine-3-yl)benzenesulfonamide]	–	≥ 50
